US7964598B2 (The J. David Gladstone Institutes, priority 1995, dated 2011)

Experiments:
[1] = system: HSPG-deficient CHO cells; assay: Pulse chase of 125I-apoE+β-VLDL, HSPG-deficient CHO cells; assay type: cell-based, Chinese hamster
Protocol: (§1) Cultured cells were grown to ˜100% confluence, placed on ice, and washed twice with cold DMEM-Hepes. The cells were then incubated with ^125I-apoE+β-VLDL at 4° C. for 1 h to allow for cell-surface binding (zero time bound ligand). Cells were rinsed three times with cold F12 medium to remove unbound ligands. Prewarmed F12 medium was added; and the cells were incubated at 37° C. for the times indicated. At each point, the cells were again placed on ice, and the culture medium was collected. To 0.5 ml of medium was added 0.4 ml of 0.2% bovine serum albumin (Sigma) and 0.4 ml of 50% trichloroacetic acid (TCA). The medium was then incubated at 4° C. for 30 min and centrifuged at 3,000 rpm for 10 min. The supernatant was collected for ^125I-apoE degradation assay, and the pellet was counted as TCA-precipitable intact ^125I-apoE. The cells were washed once with cold DMEM-Hepes, incubated with 10 mM suramin on ice in a cold room for 30 min, and then dissolved in 0.1 N NaOH. Cellular radioactivity (internalized apoE) was measured with a gamma counter, and protein concentration was determined by Lowry's method.

[2] = system: Neuro-2a cells; assay: Metabolism of apoE-enriched β-VLDL by Neuro-2a cells; assay type: cell-based, mouse; settings: for enhancement of cell association of β-VLDL: 125I-β-VLDL enriched with apoE; for cell association: purified 125I-apoE-enriched β-VLDL; for increase of cellular cholesterol content: β-VLDL enriched with apoE, compared with β-VLDL alone
Protocol: Rabbit β-VLDL (d<1.006 g/ml) were isolated from the plasma of New Zealand White rabbits fed a high-fat, high-cholesterol diet for 4 days. The ratio of cholesterol to protein in this β-VLDL ranged from ˜15 to 20:1. Human apoE-enriched β-VLDL were prepared by incubating apoE with β-VLDL at 37° C. for 1 h. For some experiments, the apoE-enriched β-VLDL were reisolated by fast-performance liquid chromatography as follows. Either ^125I-β-VLDL and unlabeled apoE or ^125I-apoE and unlabeled β-VLDL were mixed in a 1:1.5 ratio of β-VLDL protein to apoE and incubated at 37° C. for 1 h. The mixture (250 μl) was then fractionated by chromatography on a Superose 6 column (Pharmacia Fine Chemicals, Uppsala, Sweden, 10/50 HR). The flow rate was 0.5 ml/min, and 0.5 ml fractions were collected. The elution profile was monitored by quantitation of ^125I and cholesterol.
Cultured cells were grown to ˜100% confluence, washed twice with fresh serum-free medium, and incubated at 37° C. with apoE-enriched β-VLDL. Before addition to the cells, the β-VLDL and apoE were incubated together (5 and 7.5 μg of protein, respectively, unless otherwise indicated) for 1 h at 37° C. Some cells were incubated with 50 μM chloroquine, and inhibitor of lysosomal protease, at 37° C. for 2 h before addition of the apoE-enriched β-VLDL. At the times indicated, the cells were placed on ice, and the medium was assayed for protein degradation products. For the cell association studies, Neuro-2a cells were washed five times on ice with 0.1 M PBS containing 0.2% bovine serum albumin and once with 0.1 M PBS. Cell-associated ligand represents both bound and internalized material. The fibroblasts were washed three times with DMEM-Hepes on ice and incubated with 10 mM suramin at 4° C. for 30 min to remove surface-bound ligand. The radioactivity remaining within the cells represents that which was “internalized.” After washing, the cells were dissolved in 0.1 N NaOH for measurement of radioactivity and protein concentration.
The cells were then washed and solubilized with 0.1 N NaOH, and the cell-associated DiI, which is proportional to the total amount of lipoprotein metabolized (bound, internalized, and degraded), was assayed.

[3] = system: wild-type CHO cells; assay: Pulse chase of 125I-apoE+β-VLDL, wild-type CHO cells; assay type: cell-based, Chinese hamster; settings: for Total: recovery in the fractions; for bound to the cells at 4° C. (zero time): wild-type CHO cells
Protocol: as §1
To evaluate these possibilities, we conducted a modified A pulse-chase@ study in which CHO cells were incubated with ^125I-apoE-enriched β-VLDL for 1 h at 4° C., washed to remove unbound lipoproteins, and then warmed to 37° C. for various times to follow internalization, degradation, and retention (see Materials and Methods). At the specific times, the medium was removed for analysis of both degradation products (degraded apoE) and TCA-precipitable proteins (released intact apoE), and the cells were washed with suramin (suramin-releasable apoE) and then counted (internalized apoE).

In the case of “apoE3: human apolipoprotein E3 isoform, also iodinated”, the “bound to the cells” value [1] is reported as 77 ng/mg of cell protein, the “enhancement of cell association of β-VLDL” value [2] is reported as ~1.7 fold and the cell association ([2]; 2 h) is reported as 58 ng/mg of cell protein. The cell association ([2]; 4 h) was 101 ng/mg of cell protein, the “increase of cellular cholesterol content” value [2] was ~1.5 fold and the Total ([3]; 30 min) was 399 ng/mg cell protein. The Degraded ([3]; 30 min at 37° C.) was 15 ng/mg cell protein, the “Internalized (retained)” value ([3]; 30 min at 37° C.) was 157 ng/mg cell protein and the “Suramin-releasable (cell surface)” value ([3]; 30 min at 37° C.) was 45 ng/mg cell protein. The “TCA-precipitable (released intact)” value ([3]; 30 min at 37° C.) was 182 ng/mg cell protein, the Total ([3]; 60 min) was 377 ng/mg cell protein and the Degraded ([3]; 60 min at 37° C.) was 34 ng/mg cell protein. For the same substance, the “Internalized (retained)” value ([3]; 60 min at 37° C.) was 123 ng/mg cell protein, the “Suramin-releasable (cell surface)” value ([3]; 60 min at 37° C.) was 39 ng/mg cell protein and the “TCA-precipitable (released intact)” value ([3]; 60 min at 37° C.) was 181 ng/mg cell protein. For the same substance, the Total ([3]; 120 min) was 367 ng/mg cell protein, the Degraded ([3]; 120 min at 37° C.) was 45 ng/mg cell protein and the “Internalized (retained)” value ([3]; 120 min at 37° C.) was 78 ng/mg cell protein. For the same substance, the “Suramin-releasable (cell surface)” value ([3]; 120 min at 37° C.) was 12 ng/mg cell protein, the “TCA-precipitable (released intact)” value ([3]; 120 min at 37° C.) was 232 ng/mg cell protein and the “bound to the cells at 4° C. (zero time)” value [3] was 399 ng/mg of cell protein.
With “apoE4: human apolipoprotein E4 isoform, also iodinated” the “bound to the cells” value [1] was 75 ng/mg of cell protein, the “enhancement of cell association of β-VLDL” value [2] was ~1.7 fold and the cell association ([2]; 2 h) was 39 ng/mg of cell protein. The cell association ([2]; 4 h) was 65 ng/mg of cell protein, the “increase of cellular cholesterol content” value [2] was ~1.7 fold and the Total ([3]; 30 min) was 368 ng/mg cell protein. For the same substance, the Degraded ([3]; 30 min at 37° C.) was 12 ng/mg cell protein, the “Internalized (retained)” value ([3]; 30 min at 37° C.) was 84 ng/mg cell protein and the “Suramin-releasable (cell surface)” value ([3]; 30 min at 37° C.) was 27 ng/mg cell protein. For the same substance, the “TCA-precipitable (released intact)” value ([3]; 30 min at 37° C.) was 245 ng/mg cell protein, the Total ([3]; 60 min) was 338 ng/mg cell protein and the Degraded ([3]; 60 min at 37° C.) was 35 ng/mg cell protein. The “Internalized (retained)” value ([3]; 60 min at 37° C.) was 55 ng/mg cell protein, the “Suramin-releasable (cell surface)” value ([3]; 60 min at 37° C.) was 10 ng/mg cell protein and the “TCA-precipitable (released intact)” value ([3]; 60 min at 37° C.) was 238 ng/mg cell protein. For the same substance, the Total ([3]; 120 min) was 305 ng/mg cell protein, the Degraded ([3]; 120 min at 37° C.) was 43 ng/mg cell protein and the “Internalized (retained)” value ([3]; 120 min at 37° C.) was 27 ng/mg cell protein. The “Suramin-releasable (cell surface)” value ([3]; 120 min at 37° C.) was 10 ng/mg cell protein, the “TCA-precipitable (released intact)” value ([3]; 120 min at 37° C.) was 225 ng/mg cell protein and the “bound to the cells at 4° C. (zero time)” value [3] was 378 ng/mg of cell protein.
